Entries after “also recorded” stand apart in the source; their conditions may differ.
Legend:
[1] = tested on: mitochondrial permeability transition pore (PTP), wild-type fibroblasts; assay: CRC assay, mitochondria isolated from wild-type mouse fibroblasts; format: biochemical; settings: Figure 3B
Procedure: (§1) Figure 3 Effect of AA on respiration and PTP opening in mitochondria of wild-type or CyP-D knock-out mouse fibroblasts. A, upper part: Western blot analysis assessing CyP-D expression in fibroblasts obtained from either wild-type or CyP-D knock-out mice; HKII was utilized to verify protein load; lower part: representative experiment showing oxygen consumption as assessed by polarography (see Methods) in mitochondria isolated from wild-type fibroblasts in the absence (a) or presence (b) of 8 µM AA. Experiments were started by adding 0.6 mg of mitochondria (Mito), followed by 100 µM ADP and 50 µM 2,4-dinitrophenol (DNP) (arrows). Each experiment was repeated at least three times. Oxygen consumption is reported as percentage of initial value on the y axis. B, bar graphs report the ratio between the CRC detected in the presence (CRC) and absence (CRC0) of increasing concentrations of AA, in mitochondria from either wild-type fibroblasts (left) or CyP-D knock-out fibroblasts (right).
(§2) Mitochondria were isolated either from livers of C57BL/6 mice through sequential centrifugations, or from cells, as described. To obtain mitochondria, cells were disrupted with a glass-Teflon potter in a buffer composed by 250 mM sucrose, 10 mM Tris-HCl, 0.1 mM EGTA-Tris, pH 7.4. Nuclei and plasma membrane fractions were separated by a first mild centrifugation (700× g, 10 min), and mitochondria were then spinned down at a higher speed (7000× g, 10 min). All procedures were carried out at 0–4°C.
(§3) PTP opening was detected as a fluorescence increase.

[2] = tested on: mitochondria from CyP-D knock-out fibroblasts; assay: mitochondrial respiration assay, CyP-D knock-out fibroblast mitochondria; format: biochemical, mouse; settings: polarography, Clark electrode, 25°C
Procedure: as §1, with “(right). […] Results are mean±SD of at least 4 experiments.” for “(right).”
(§4) Mitochondrial oxygen consumption was measured polarographically at 25°C with a Clark oxygen electrode (Yellow Springs Instruments, OH, USA). Mitochondria (0.6 mg per experimental point) were incubated in a solution of 130 mM KCl, 10 mM Tris-Mops, 1 mM Pi-Tris, 20 mM EGTA-Tris and 2 µM rotenone/5 mM succinate to assay basal respiration (state 4). […]

[3] = tested on: HeLa cells; format: cell-based, human; settings: clotrimazole; data not shown
[4] = tested on: organic anion-transporting polypeptide family; settings: also our unpublished data; ref [8]; cited from earlier work
Text: (§5) Antamanide (AA) is a monocyclic, homodetic decapeptide isolated from the poisonous mushroom Amanita phalloides. […] Little is known about the biochemical mechanisms underlying these diverse bioactivities. […] The CyP chaperone activity, i.e. the isomerization to the cis form of the peptidyl bonds preceding each proline, is involved in folding and association processes required for proteins to perform thei ...

[5] = tested on: mitochondria isolated from wild-type fibroblasts; assay: mitochondrial respiration assay, wild-type fibroblast mitochondria; format: biochemical, mouse; settings: 8 µM AA; polarography, Clark electrode, 25°C; repeated at least three times
Procedure: as §1, with “(right). […] Results are mean±SD of at least 4 experiments.” for “(right).”
as §4

[6] = tested on: mitochondrial permeability transition pore (PTP), CyP-D knock-out fibroblasts; assay: CRC assay, mitochondria isolated from CyP-D knock-out mouse fibroblasts; format: biochemical; settings: 25°C, Figure 3B
Procedure: as §1, with “(right). […] Results are mean±SD of at least 4 experiments.” for “(right).”
Mitochondria were isolated either from livers of C57BL/6 mice through sequential centrifugations, or from cells, as described. To obtain mitochondria, cells were disrupted with a glass-Teflon potter in a buffer composed by 250 mM sucrose, 10 mM Tris-HCl, 0.1 mM EGTA-Tris, pH 7.4. […]
as §3

[7] = tested on: phallotoxins and amatoxins; settings: cited from earlier work
Text: Antamanide (AA) is a monocyclic, homodetic decapeptide isolated from the poisonous mushroom Amanita phalloides. […] Little is known about the biochemical mechanisms underlying these diverse bioactivities.

[8] = tested on: membrane permeabilization by phalloidin; assay: membrane permeabilization by phalloidin; format: cell-based; settings: data not shown
[9] = tested on: mitochondrial permeability transition pore (PTP), HeLa cells; assay: CRC assay, mitochondria isolated from HeLa cells; format: biochemical, human; settings: Figure 5A
Procedure: Figure 5 Effect of AA on mitochondrial potential of HeLa cells. A, bar graphs report the ratio between the CRC detected in the presence (CRC) and absence (CRC0) of increasing concentrations of AA in mitochondria from HeLa cells. […] B,C cytofluorimetric analysis of mitochondrial depolarization. HeLa cells were incubated with the TMRM probe and treated for 1 hour with the reported concentrations of either clotrimazole (CTM) or TAT-HK peptide. An unrelated TAT-linked peptide (TAT-Ctr) is used as a negative control. […] Bar graphs in B display the percentage of cells with depolarized mitochondria (mean±SD, n = 4). […] Histograms in C report a representative experiment, where cells with polarized and depolarized mitochondria are indicated in red and grey, respectively.
as §2, §3

[10] = tested on: mouse liver mitochondria; assay: mitochondrial respiration assay, mouse liver mitochondria; format: biochemical; settings: polarography, Clark electrode, 25°C; data not shown
Procedure: Mitochondrial oxygen consumption was measured polarographically at 25°C with a Clark oxygen electrode (Yellow Springs Instruments, OH, USA). Mitochondria (0.6 mg per experimental point) were incubated in a solution of 130 mM KCl, 10 mM Tris-Mops, 1 mM Pi-Tris, 20 mM EGTA-Tris and 2 µM rotenone/5 mM succinate to assay basal respiration (state 4). ADP (200 µM) was subsequently added to measure state 3 respiration, followed by the uncoupling agent dinitrophenol (100 µM) to assess the maximal respiration rate.

[11] = tested on: immunosuppressant; parameters: method as in PMID 1494502, PMID 8441706; settings: ref [10], [11]; cited from earlier work
Text: as §5

[12] = tested on: mitochondrial permeability transition pore (PTP); format: biochemical, mouse
Procedure: A, chemical structure of AA. B, D, Ca^2+ retention capacity (CRC) either in phosphate (Pi) buffer (B) or in arsenate (Asi) buffer (D). Calcium Green-5N fluorescence is reported as arbitrary units on the y axis.
as §2, §3

[13] = AA at various concentrations, mean±SD of at least 4 experiments, Student's t test

Antamanide [AA]
CRC/CRC0: difference from CRC of untreated mitochondria [1, 13]: significant difference (Student's t test analysis; *: p<0.01) | additivity of PTP inhibition with CsA ([1]; combination with CsA): not enhanced by CsA; also recorded: not additive | PTP inhibition (CRC) ([1]; isolated mitochondria, 25°C): AA inhibited the pore in mitochondria from wild-type fibroblasts | oxygen consumption [2]: unaffected | inhibition of clotrimazole-induced cell death [3]: inhibited the process | inhibition of cell uptake of phalloidin [4]: block cell uptake of the phallotoxin phalloidin | oxygen consumption [5]: unaffected | PTP inhibition (CRC) [6]: totally ineffective | antidote activity ([7]; ref [2]): strong antidote activity against phallotoxins and amatoxins | abrogation of toxic effects of phalloidin ([7]; ref [8], [9]): abrogates the toxic effects of the phallotoxin phalloidin | inhibition of membrane permeabilization by phalloidin [8]: inhibits membrane permeabilization by phalloidin | CRC/CRC0: difference from CRC of untreated mitochondria [9, 13]: significant difference (Student's t test analysis; *: p<0.01) | additivity of PTP inhibition with CsA ([9]; combination with CsA): the effect of AA did not add to that of CsA; also recorded: not additive | PTP inhibition (CRC) ([9]; mitochondria from HeLa cells): AA inhibited the pore also in mitochondria isolated from HeLa cells | oxygen consumption [10]: unaffected | immunosuppressant activity [11]: acts as an immunosuppressant | CRC/CRC0: difference from CRC of untreated mitochondria ([12]; AA at various concentrations, Figure 1C and D, mean±SD of at least 4 experiments, Student's t test): significant difference (Student's t test analysis; *: p<0.01) | concentration at which the effect reaches a plateau (concentration-response CRC) ([12]; Figure 2B, mean±SD of at least 4 experiments): about 20 µM | PTP inhibition in arsenate ([12]; arsenate (Asi) buffer, Figure 1B, D): abrogated in the presence of arsenate; also recorded: act as pore inhibitors only in Pi buffer | additivity of PTP inhibition with CsA ([12]; combination with CsA, Figure 1C): not additive with that of CsA | additivity of PTP inhibition with Ub0 ([12]; combination with Ub0, Figure 1C, t test #: p<0.01): AA did increase inhibition by Ub0; also recorded: additive with that of Ub0 | PTP inhibition (CRC) ([12]; phosphate-containing medium, Calcium Green-5N, 25°C): AA inhibited pore opening, similar to the PTP inhibitors CsA or Ubiquinone 0

Reference: publication PMC3030572, “Antamanide, a Derivative of Amanita phalloides, Is a Novel Inhibitor of the Mitochondrial Permeability Transition Pore” (PLoS ONE, 2011)
